Assay results reported in patent US20250195502A1, “APPLICATION OF TETRACYCLIC COMPOUND IN TREATMENT OF TUMORS” (SHANGHAI SHIJIANG BIOTECHNOLOGY CO., LTD, priority 2022, published 2025).
Where two headings read alike, the source gives them in different places.

Legend:
Type in all cases: cell-based
[1] = system: NCI-H82 (human small cell lung cancer cell); assay: Cell viability assay (Promega CellTiter-Glo), inhibitory effect on NCI-H82; settings: 72 h, 3 days of culture
Experimental: (§1) The inhibitory effect of the compounds prepared in the Examples of the present invention on various tumor cell lines was detected using cell viability assay reagent.
(§2) Cell viability was detected using the Promega CellTiter-Glo kit, cell viability was determined by directly measuring intracellular ATP content. In the experiment, the ICso value of the compounds prepared in the Examples of the present invention on various tumor cell lines was detected.
(§3) Each tumor cell was cultured in relevant medium. After cell passage, the gradient diluted compounds prepared in the Examples of the present invention was added. After 3 days of culture, the relevant IC50 (50% inhibiting concentration) was measured. The name, source and culture conditions of each tumor cell line were as follows:
Cell line NCI-H82 (ATCC, No. HTB-175) was cultured in 10% fetal bovine serum-containing RPMI1640 medium (+P/S).

[2] = system: SW48 (human colon adenocarcinoma cell); assay: Cell viability assay (Promega CellTiter-Glo), inhibitory effect on SW48; settings: 72 h, 3 days of culture
Experimental: as §1, §2, §3
Cell line SW48 (ATCC, No. CCL-231) was cultured in 10% fetal bovine serum-containing Leibovitz's L-15 medium (+P/S).

[3] = system: G-401 (human renal carcinoma Wilms cell); assay: Cell viability assay (Promega CellTiter-Glo), inhibitory effect on G-401; settings: 72 h, 3 days of culture
Experimental: as §1, §2, §3
Cell line G-401 (ATCC, No. CRL-1441) was cultured in 10% fetal bovine serum-containing McCoy's 5a medium (+P/S).

[4] = system: MDA-MB-453 (breast cancer cell); assay: Cell viability assay (Promega CellTiter-Glo), inhibitory effect on MDA-MB-453; settings: Homo sapiens, 72 h, 3 days of culture
Experimental: as §1, §2, §3
Cell line MDA-MB-453 (ATCC, No. HTB-131) was cultured in 10% fetal bovine serum-containing Leibovitz's L-15 medium (+P/S).

[5] = system: CFPAC-1 (human pancreatic cancer cell); assay: Cell viability assay (Promega CellTiter-Glo), inhibitory effect on CFPAC-1; settings: 72 h, 3 days of culture
Experimental: as §1, §2, §3
Cell line CFPAC-1 (ATCC, No. CRL-1918) was cultured in 10% fetal bovine serum-containing IMDM medium (+P/S).

[6] = system: 786-O (clear cell renal cell adenocarcinoma cell); assay: Cell viability assay (Promega CellTiter-Glo), inhibitory effect on 786-O; settings: Homo sapiens, 786-0, 72 h, 3 days of culture
Experimental: as §1, §2, §3
Cell line 786-0 (ATCC, No. CRL-1932) was cultured in 10% fetal bovine serum-containing RPMI1640 medium (+P/S).

[7] = system: SF126 (human glioblastoma multiforme cell); assay: Cell viability assay (Promega CellTiter-Glo), inhibitory effect on SF126
Experimental: as §1, §2, §3
Cell line SF126 (JCRB, No. IFO50286) was cultured in 10% fetal bovine serum-containing EMEM medium (+P/S).
(§4) The inhibitory effect of the compounds prepared in the Examples of the present invention on various brain tumor cell lines was detected using cell viability assay reagent.
(§5) Cell viability was detected using the Promega CellTiter-Glo kit, cell viability was determined by directly measuring intracellular ATP content. In the experiment, the IC50 value of the compounds prepared in the Examples of the present invention on various brain tumor cell lines was detected.

[8] = system: GB-1 (human brain glioblastoma cell); assay: Cell viability assay (Promega CellTiter-Glo), inhibitory effect on GB-1; settings: 72 h, 3 days of culture
Experimental: as §1, §2, §3
Cell line GB-1 (JCRB, No. IFO50489) was cultured in 10% fetal bovine serum-containing DMEM medium (+P/S).
as §4, §5

[9] = system: Kelly (brain neuroblastoma cell); assay: Cell viability assay (Promega CellTiter-Glo), inhibitory effect on Kelly; settings: Homo sapiens, 72 h, 3 days of culture, read-out: inhibitory effect on brain cell line Kelly (IC50)
Experimental: as §4, §5, §3
Cell line Kelly (ECACC, No. 92110411) was cultured in 10% fetal bovine serum and 2 mM glutamine-containing RPMI1640 medium.

[10] = system: NB-1 (brain neuroblastoma cell); assay: Cell viability assay (Promega CellTiter-Glo), inhibitory effect on NB-1; settings: Homo sapiens, 72 h, 3 days of culture, read-out: inhibitory effect on brain cell line NB-1 (IC50)
Experimental: as §4, §5, §3
Cell line NB-1 (ATCC, No. HTB-131) was cultured in 10% fetal bovine serum-containing Leibovitz's L-15 medium (+P/S).

[11] = system: D341 Med (cerebellar medulloblastoma cell); assay: Cell viability assay (Promega CellTiter-Glo), inhibitory effect on D341 Med; settings: Homo sapiens, 72 h, 3 days of culture, read-out: inhibitory effect on brain cell line D341 Med (IC50)
Experimental: as §4, §5, §3
Cell line D341 Med (ATCC, No. HTB-187) was cultured in 20% fetal bovine serum-containing EMEM medium (+P/S).

[12] = system: Con-NCI-H82 cell (NCI-H82 transfected with empty virus vector); assay: Cell viability assay (Promega CellTiter-Glo), inhibitory effect on Con-NCI-H82 cell; settings: Homo sapiens; NCI-H82 transfected with empty virus vector (control); CellTiter-Glo; read-out: inhibitory effect on Con-NCI-H82 (IC50)
Experimental: (§6) The role of expression level of NNMT gene and DNMT1 in the sensitivity of NCI-H82 cell to the compounds prepared in the Examples of the present invention was determined
(§7) The expression of NNMT protein in NCI-H82 cell was overexpressed by inserting the NNMT gene into NCI-H82 cell using a viral vector, and the NNMT protein-overexpressing NCI-H82 cell (ov-NNMT NCI-H82 cell) was obtained. The expression of DNMT1 in NCI-H82 cell was knocked down transfecting (the by shRNA nucleotide sequence of shRNA was […] TTTTTG (SEQ ID No: 2)) using a viral vector, and the NCI-H82 cell with low expression of DNMT1 protein (sh-DNMT1 NCI-H82 cell) was obtained. The control NCI-H82 cell (Con-NCI-H82 cell) was obtained by transfecting NCI-H82 cell with empty virus vector without carrying NNMT gene and shRNA. The expressing content of NNMT protein and DNMT1 protein in the Con-NCI-H82 cell, the expressing content of NNMT protein in the ov-NNMT NCI-H82 cell, and the expressing content of DNMT1 protein in the sh-DNMT1 NCI-H82 cell were detected using Western Blot assay (as shown in FIG. 15 and FIG. 16), it could be seen from FIG. 15 and FIG. 16 that the NNMT protein was overexpressed in the ov-NNMT NCI-H82 cell and the expression of DNMT1 protein was knocked down (i.e, low expression) in the sh-DNMT1 NCI-H82 cell compared with the expression level of NNMT protein and DNMT protein in the Con-NCI-H82 cell.

[13] = system: ov-NNMT NCI-H82 cell (NNMT protein-overexpressing NCI-H82); assay: Cell viability assay (Promega CellTiter-Glo), inhibitory effect on ov-NNMT NCI-H82 cell; settings: Homo sapiens
Experimental: as §6, §7

[14] = system: sh-DNMT1 NCI-H82 cell (DNMT1 knocked down NCI-H82); assay: Cell viability assay (Promega CellTiter-Glo), inhibitory effect on sh-DNMT1 NCI-H82 cell; settings: Homo sapiens, NCI-H82 with DNMT1 knocked down by shRNA
Experimental: as §6, §7

[15] = 72 h, SF-126, 3 days of culture, Table 3, read-out: inhibitory effect on SF-126 (IC50)
[16] = SF-126, 72 h, SF126, 3 days of culture, Table 4, read-out: inhibitory effect on brain cell line SF126 (IC50)
[17] = Table 3, read-out: inhibitory effect on GB-1 (IC50)
[18] = Table 4, read-out: inhibitory effect on brain cell line GB-1 (IC50)

| SMILES | IC50 [1] [µM] | IC50 [2] [µM] | IC50 [3] [µM] | IC50 [4] [µM] | IC50 [5] [µM] | IC50 [6] [µM] | IC50 [7, 15] [µM] | IC50 [7, 16] [µM] | IC50 [8, 17] [µM] | IC50 [8, 18] [µM] | IC50 [9] [µM] | IC50 [10] [µM] | IC50 [11] [µM] | IC50 [12] [µM] | IC50 [13] [µM] | IC50 [14] [µM] |
| --- | --- | --- | --- | --- | --- | --- | --- | --- | --- | --- | --- | --- | --- | --- | --- | --- |
| CCc1c2c(OC)c(OC)ccc2cc2[n+]1CCc1cc3c(cc1-2)OCO3 [compound AB31706] | 1.48 | 1.24 | 1.12 | 0.62 | 21.9 | 16.6 | 6.49 | 6.49 | 12.9 | 12.9 | 1.51 | 0.3 | 1.18 | 1.48 | 3.15 | 4.64 |
| CCCCc1c2c(OC)c(OC)ccc2cc2[n+]1CCc1cc3c(cc1-2)OCO3 [compound AB31707] | 1.17 | 1.42 | 1.12 | 0.62 | 13.1 | 7.63 | 10.2 | 10.2 | 8.27 | 8.27 | 1.24 | 0.29 | 1.37 | 1.17 | 2.96 | 3.41 |
| CCCCc1c2c(OC)c(OC)cc(Br)c2cc2[n+]1CCc1cc3c(cc1-2)OCO3 [compound AB31711] | 0.65 | 0.82 | 0.72 | 0.5 | 9.47 | 3.97 | 5.21 | 5.21 | 5.32 | 5.32 | 0.88 | 0.24 | 0.92 | 0.65 | 1.43 | 1.9 |
| COc1ccc2cc3[n+](cc2c1OCCCCOc1ccccc1)CCc1cc2c(cc1-3)OCO2 [compound AB31718] | 0.29 | 0.25 | 0.37 | 0.09 | 5.29 | 2.69 | 4.25 | 4.25 | 3.41 | 3.41 | 0.66 | 0.02 | 0.18 | 0.29 | 0.68 | 1.36 |
| COc1ccc2cc3[n+](cc2c1OCCCBr)CCc1cc2c(cc1-3)OCO2 [compound AB31721] | 0.4 | 0.8 | 1.38 | 0.43 | 7.17 | 9.16 | 10.8 | 10.8 | 10.1 | 10.1 | 1.26 | 0.14 | 0.36 | 0.4 | 0.92 | 1.31 |
| CCC(CC)C(=O)Oc1c(OC)ccc2cc3[n+](cc12)CCc1cc2c(cc1-3)OCO2 [compound AB31722] | 2.81 | 2.06 | 3.94 | 1.41 | 24.4 | 26.2 | 20.6 | 20.6 | 40.5 | 40.5 | 2.52 | 0.98 | 2.89 | 2.81 | 5.98 | 8.93 |
| COc1ccc2cc3[n+](cc2c1OCCCCCCCl)CCc1cc2c(cc1-3)OCO2 [compound AB31731] | 0.52 | 0.62 | 0.77 | 0.22 | 8.98 | 3.76 | 6.19 | 6.19 | 6.64 | 6.64 | 0.86 | 0.07 | 0.34 | 0.52 | 1.32 | 1.66 |
